Reference: patent publication US20150376172A1, “FLUORO-[1,3]OXAZINES AS BACE1 INHIBITORS” (HOFFMANN-LA ROCHE INC., priority 2013, published 2015)
Where a name gives a salt, the structure may show the parent alone.

biological target: T1, BACE1 (Homo sapiens, UniProt P56817); experiment: Cellular Aβ-lowering assay (Abeta 40 AlphaLISA); format: cell-based; conditions: HEK293 APP cells; 18-20 hrs incubation; Aβ 40 in culture supernatants by AlphaLISA; read-out: BACE1 cell act. Aβ40 IC50
T1 construct: endogenous in cells; host or cells: HEK293 APP cells
Protocol: Cellular Aβ-lowering assay:
The Abeta 40 AlphaLISA Assay can be used. The HEK293 APP cells were seeded in 96 well Microtiter plates in cell culture medium (Iscove's, plus 10% (v/v) fetal bovine serum, penicillin/streptomycin) to about 80% confluency and the compounds were added at a 3× concentration in ⅓ volume of culture medium (final DMSO concentration was kept at 1% v/v). After 18-20 hrs incubation at 37° C. and 5% CO2 in a humidified incubator, the culture supernatants were harvested for the determination of Aβ 40 concentrations using Perkin-Elmer Human Amyloid beta 1-40 (high specificity) Kit (Cat#AL275C).
In a Perkin-Elmer White Optiplate-384 (Cat#6007290), 2 ul culture supernatants were combined with 2 μl of a 10× AlphaLISA Anti-hAβAcceptor beads+Biotinylated Antibody Anti-Aβ1-40 Mix (50 μg/mL/5 nM). After 1 hour room temperature incubation, 16 μl of a 1.25× preparation of Streptavidin (SA) Donor beads (25 μg/mL) were added and incubated for 30 minutes in the Dark. Light Emission at 615 nm was then recorded using EnVision-Alpha Reader. Levels of Aβ 40 in the culture supernatants were calculated as percentage of maximum signal (cells treated with 1% DMSO without inhibitor). The IC50 values were calculated using the Excel XLfit software.

T1 sequence (P56817 46-501): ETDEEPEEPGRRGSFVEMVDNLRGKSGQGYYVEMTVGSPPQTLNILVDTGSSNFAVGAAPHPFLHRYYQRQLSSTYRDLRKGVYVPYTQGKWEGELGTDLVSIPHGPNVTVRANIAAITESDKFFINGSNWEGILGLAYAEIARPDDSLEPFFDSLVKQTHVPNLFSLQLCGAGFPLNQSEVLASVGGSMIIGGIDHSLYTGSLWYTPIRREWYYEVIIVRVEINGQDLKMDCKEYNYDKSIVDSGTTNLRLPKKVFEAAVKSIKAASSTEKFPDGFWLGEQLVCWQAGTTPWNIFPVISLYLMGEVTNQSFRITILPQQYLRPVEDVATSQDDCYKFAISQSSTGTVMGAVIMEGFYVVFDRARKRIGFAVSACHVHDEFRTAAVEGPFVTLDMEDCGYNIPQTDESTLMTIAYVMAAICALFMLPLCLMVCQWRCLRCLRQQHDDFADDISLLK

| SMILES | IC50 [µM] |
| --- | --- |
| C[C@@]1(c2sc(-c3cncc(C#N)c3)cc2Cl)C[C@@H](C(F)(F)F)OC(N)=N1 [Example 31, 5-(5-((4S,6S)-2-Amino-4-methyl-6-(trifluoromethyl)-5,6-dihydro-4H-1,3-oxazin-4-yl)-4-chlorothiophen-2-yl)nicotinonitrile] | 0.34 |
| CCn1cc(C#Cc2ccc(F)c([C@]3(CF)C[C@@H](C(F)(F)F)OC(N)=N3)c2)cn1 [Example 58, (4S,6S)-4-(5-((1-Ethyl-1H-pyrazol-4-yl)ethynyl)-2-fluorophenyl)-4-(fluoromethyl)-6-(trifluoromethyl)-5,6-dihydro-4H-1,3-oxazin-2-amine] | 25.7 |
| CC#Cc1cncc(-c2cc(Cl)c([C@]3(C)C[C@@H](C(F)(F)F)OC(N)=N3)s2)c1 [Example 30, (4S,6S)-4-(3-Chloro-5-(5-(prop-1-ynyl)pyridin-3-yl)thiophen-2-yl)-4-methyl-6-(trifluoromethyl)-5,6-dihydro-4H-1,3-oxazin-2-amine] | 0.62 |
| C[C@@]1(c2cc(NC(=O)c3ccc(Cl)cn3)cs2)C[C@@H](C(F)(F)F)OC(N)=N1 [Example 34, N-(5-((4S,6S)-2-amino-4-methyl-6-(trifluoromethyl)-5,6-dihydro-4H-1,3-oxazin-4-yl)thiophen-3-yl)-5-chloropicolinamide] | 0.33 |
| C[C@@]1(c2cc(C#Cc3ccc(C#N)nc3)ccc2F)C[C@@H](C(F)(F)F)OC(N)=N1 [Example 46, 5-((3-((4S,6S)-2-amino-4-methyl-6-(trifluoromethyl)-5,6-dihydro-4H-1,3-oxazin-4-yl)-4-fluorophenyl)ethynyl)picolinonitrile] | 0.45 |
| C[C@@]1(c2cc(-c3nnc(-c4ccc(Cl)cc4)o3)ccc2F)C[C@@H](C(F)(F)F)OC(N)=N1 [Example 40, (4S,6S)-4-(5-(5-(4-Chlorophenyl)-1,3,4-oxadiazol-2-yl)-2-fluorophenyl)-4-methyl-6-(trifluoromethyl)-5,6-dihydro-4H-1,3-oxazin-2-amine] | > 40 |
| C[C@@]1(c2cc(-c3cncc(C#N)c3)cs2)C[C@@H](C(F)(F)F)OC(N)=N1 [Example 26, 5-(5-((4S,6S)-2-Amino-4-methyl-6-(trifluoromethyl)-5,6-dihydro-4H-1,3-oxazin-4-yl)thiophen-3-yl)nicotinonitrile Hydrochloride] | 0.7 |
| C[C@@]1(c2cc(-c3nc4ccc(Cl)cc4o3)ccc2F)C[C@@H](C(F)(F)F)OC(N)=N1 [Example 39, (4S,6S)-4-(5-(6-Chlorobenzo[d]oxazol-2-yl)-2-fluorophenyl)-4-methyl-6-(trifluoromethyl)-5,6-dihydro-4H-1,3-oxazin-2-amine] | 0.53 |
| NC1=N[C@](CF)(c2cc(C#Cc3cncc(Cl)c3)ccc2F)C[C@@H](C(F)(F)F)O1 [Example 61, (4S,6S)-4-(5-((5-Chloropyridin-3-yl)ethynyl)-2-fluorophenyl)-4-(fluoromethyl)-6-(trifluoromethyl)-5,6-dihydro-4H-1,3-oxazin-2-amine] | 3.49 |
| C[C@@]1(c2cc(C#Cc3ncc(C#N)s3)ccc2F)C[C@@H](C(F)(F)F)OC(N)=N1 [Example 67, 2-((3-((4S,6S)-2-Amino-4-methyl-6-(trifluoromethyl)-5,6-dihydro-4H-1,3-oxazin-4-yl)-4-fluorophenyl)ethynyl)thiazole-5-carbonitrile] | 0.95 |
| COc1cnc(C#Cc2ccc(F)c([C@]3(C)C[C@@H](C(F)(F)F)OC(N)=N3)c2)cn1 [Example 25, (4S,6S)-4-(2-Fluoro-5-((5-methoxypyrazin-2-yl)ethynyl)phenyl)-4-methyl-6-(trifluoromethyl)-5,6-dihydro-4H-1,3-oxazin-2-amine] | 1.28 |
| Cc1cc(F)c([C@]2(C)C[C@@H](C(F)(F)F)OC(N)=N2)cc1-c1cnccc1F [Example 73, (4S,6S)-4-(2-Fluoro-5-(4-fluoropyridin-3-yl)-4-methylphenyl)-4-methyl-6-(trifluoromethyl)-5,6-dihydro-4H-1,3-oxazin-2-amine] | 1.3 |
| C[C@@]1(c2cc(C#Cc3ccc(C#N)cc3)ccc2F)C[C@@H](C(F)(F)F)OC(N)=N1 [Example 66, 4-((3-((4S,6S)-2-Amino-4-methyl-6-(trifluoromethyl)-5,6-dihydro-4H-1,3-oxazin-4-yl)-4-fluorophenyl)ethynyl)benzonitrile] | 0.2 |
| N#Cc1ccc(C#Cc2ccc(F)c([C@]3(CF)C[C@@H](C(F)(F)F)OC(N)=N3)c2)nc1 [Example 62, 6-((3-((4S,6S)-2-Amino-4-(fluoromethyl)-6-(trifluoromethyl)-5,6-dihydro-4H-1,3-oxazin-4-yl)-4-fluorophenyl)ethynyl)nicotinonitrile] | 0.4 |
| NC1=N[C@](CF)(c2cc(C#Cc3ncc(Cl)cn3)ccc2F)C[C@@H](C(F)(F)F)O1 [Example 63, (4S,6S)-4-[5-[2-(5-Chloropyrimidin-2-yl)ethynyl]-2-fluorophenyl]-4-(fluoromethyl)-6-(trifluoromethyl)-5,6-dihydro-1,3-oxazin-2-amine] | 0.43 |
| C[C@@]1(c2cc(C#Cc3ccc(Cl)nc3)ccc2F)C[C@@H](C(F)(F)F)OC(N)=N1 [Example 76, (4S,6S)-4-[5-[2-(6-Chloropyridin-3-yl)ethynyl]-2-fluorophenyl]-4-methyl-6-(trifluoromethyl)-5,6-dihydro-1,3-oxazin-2-amine] | 1.92 |
| C[C@]1(F)[C@H](C(F)(F)F)OC(N)=N[C@]1(C)c1cc(NC(=O)c2ccc(C#N)cn2)ccc1F [Example 9, N-(3-((4R,5R,6R)-2-Amino-5-fluoro-4,5-dimethyl-6-(trifluoromethyl)-5,6-dihydro-4H-1,3-oxazin-4-yl)-4-fluorophenyl)-5-cyanopicolinamide] | 0.44 |
| Cc1cc(F)c([C@]2(C)C[C@@H](C(F)(F)F)OC(N)=N2)cc1C#Cc1ccc(C#N)cn1 [Example 70, 6-((5-((4S,6S)-2-Amino-4-methyl-6-(trifluoromethyl)-5,6-dihydro-4H-1,3-oxazin-4-yl)-4-fluoro-2-methylphenyl)ethynyl)nicotinonitrile] | 0.57 |
| C[C@@]1(c2cc(-c3cncnc3)cs2)C[C@@H](C(F)(F)F)OC(N)=N1 [Example 42, (4S,6S)-4-Methyl-4-(4-(pyrimidin-5-yl)thiophen-2-yl)-6-(trifluoromethyl)-5,6-dihydro-4H-1,3-oxazin-2-amine] | 2.52 |

Now those with a lower IC50, led by results:

| IC50 [µM] | SMILES |
| --- | --- |
| 0.11 | Cc1cc(F)c([C@]2(C)C[C@@H](C(F)(F)F)OC(N)=N2)cc1C#Cc1ncc(Cl)cn1 [Example 72, (4S,6S)-4-(5-((5-Chloropyrimidin-2-yl)ethynyl)-2-fluoro-4-methylphenyl)-4-methyl-6-(trifluoromethyl)-5,6-dihydro-4H-1,3-oxazin-2-amine] |
| 0.16 | C[C@@]1(c2cc(C#Cc3nn(C(F)F)cc3Cl)ccc2F)C[C@@H](C(F)(F)F)OC(N)=N1 [Example 68, (4S,6S)-4-(5-((4-chloro-1-(difluoromethyl)-1H-pyrazol-3-yl)ethynyl)-2-fluorophenyl)-4-methyl-6-(trifluoromethyl)-5,6-dihydro-4H-1,3-oxazin-2-amine] |
| 0.15 | C[C@]1(c2cc(NC(=O)c3ccc(C#N)cn3)ccc2F)N=C(N)O[C@@H](C(F)(F)F)[C@@H]1F [Example 1, N-(3-((4R,5R,6R)-2-Amino-5-fluoro-4-methyl-6-(trifluoromethyl)-5,6-dihydro-4H-1,3-oxazin-4-yl)-4-fluorophenyl)-5-cyanopicolinamide] |
| 0.01 | C[C@]1(c2cc(NC(=O)c3ccc(C#N)cn3)ccc2F)N=C(N)O[C@H](C(F)(F)F)[C@@H]1F [Example 2, N-(3-((4R,5R,6S)-2-Amino-5-fluoro-4-methyl-6-(trifluoromethyl)-5,6-dihydro-4H-1,3-oxazin-4-yl)-4-fluorophenyl)-5-cyanopicolinamide] |
| 0.18 | C[C@@]1(c2cc(-c3cn(-c4ccc(C#N)cn4)nn3)ccc2F)C[C@@H](C(F)(F)F)OC(N)=N1 [Example 77, 6-(4-(3-((4S,6S)-2-Amino-4-methyl-6-(trifluoromethyl)-5,6-dihydro-4H-1,3-oxazin-4-yl)-4-fluorophenyl)-1H-1,2,3-triazol-1-yl)nicotinonitrile] |
| 0.088 | C[C@@]1(c2cc(NC(=O)c3ccc(C#N)cn3)cs2)C[C@@H](C(F)(F)F)OC(N)=N1 [Example 35, N-(5-((4S,6S)-2-Amino-4-methyl-6-(trifluoromethyl)-5,6-dihydro-4H-1,3-oxazin-4-yl)thiophen-3-yl)-5-cyanopicolinamide] |
| 0.13 | Cc1cc(F)c([C@]2(C)C[C@@H](C(F)(F)F)OC(N)=N2)cc1C#Cc1ncc(C#N)cc1Cl [Example 69, 6-((5-((4S,6S)-2-Amino-4-methyl-6-(trifluoromethyl)-5,6-dihydro-4H-1,3-oxazin-4-yl)-4-fluoro-2-methylphenyl)ethynyl)-5-chloronicotinonitrile] |
| 0.18 | Cc1cc(F)c([C@]2(C)C[C@@H](C(F)(F)F)OC(N)=N2)cc1C#Cc1nn(C(F)F)cc1Cl [Example 71, (4S,6S)-4-(5-((4-Chloro-1-(difluoromethyl)-1H-pyrazol-3-yl)ethynyl)-2-fluoro-4-methylphenyl)-4-methyl-6-(trifluoromethyl)-5,6-dihydro-4H-1,3-oxazin-2-amine] |
